Values of other authors, collected in patent US20250179000A1 (Sanford Burnham Prebys Medical Discovery Institute, priority 2021, published 2025).

What was measured:
R6/2 mice = details: cited from earlier work
SMI-32+ motor neurons = details: abrogated by anti-GDNF antibodies; cited from earlier work
spinal cord GDNF levels = details: cited from earlier work
[1] = tested on: cultured spinal cord astrocytes; details: wild-type and mGlu2 knockout mice, not mGlu3 knockout; cited from earlier work
[2] = tested on: 6-OHDA lesioned nigrostriatal tract; details: cited from earlier work
[3] = tested on: nigro-striatal damage induced by 1-methyl-4-phenyl-1,2,3,6-tetrahydropyridine in mice; details: acute or repeated 0.25 or 3 mg/kg i.p.; tyrosine hydroxylase-positive neuron count; cited from earlier work
reserpine-treated rat = details: cited from earlier work
[4] = tested on: GDNF mRNA and protein levels in the mouse brain; details: cited from earlier work
SOD1G93A mice = details: cited from earlier work

N[C@@]1(C(=O)O)CO[C@H]2[C@H](C(=O)O)[C@H]21 [LY379268]
striatal neuron loss (R6/2 mice; 20 mg/kg daily s.c., at 10 weeks): rescue of a 15-20% striatal neuron loss
motor function (R6/2 mice; 20 mg/kg daily s.c., distance traveled, speed, pauses, straight-line locomotion): normalization of motor function
phenotype in R6/2 mice (R6/2 mice; 20 mg/kg daily subcutaneous, beginning at 4 weeks): dramatically improves the phenotype
protection of motor neurons against excitotoxic death (SMI-32+ motor neurons): protected
tolerance to GDNF-enhancing effect (spinal cord GDNF levels; 28 days s.c. osmotic minipumps, 0.5-5 mg/day): No tolerance developed
spinal cord GDNF levels (spinal cord GDNF levels; acute 0.5, 1 or 5 mg/kg i.p., wild-type and mGlu2 knockout mice, not mGlu3 knockout): enhanced spinal cord GDNF levels
expression of glutamate transporter GLT-1 in spinal cord (spinal cord GDNF levels; continuous infusion): enhanced the expression
GDNF levels in astrocytes [1]: enhanced GDNF levels
protection against nigral infusion of 6-OHDA ([2]; 10 mg/kg/day ip, 7 days): some protection
protection against striatal infusion of 6-OHDA ([2]; 10 mg/kg/day ip, 21 days, striatum): significant protection in the striatum
rotational behaviour ([2]; systemic 0.1, 1, 10 mg/kg ip, 1 month after unilateral 6-OHDA lesion): failed to effect rotational behaviour
protection against nigro-striatal damage [3]: highly protective
locomotor activity (reserpine-treated rat; intracerebroventricular 1, 5, 10, 20 nmol, reserpine 5 mg/kg ip): dose-dependent increase in locomotor activity
reserpine-induced akinesia (reserpine-treated rat; systemic 0.1, 1, 10 mg/kg ip): did not reverse reserpine-induced akinesia
GDNF mRNA and protein levels ([4]; 0.25-3 mg/kg i.p.): increased
time of peak GDNF mRNA levels ([4]; after injection): 3 h
neurological disability (SOD1G93A mice; continuous treatment 1 or 5 mg/kg/day): beneficial effect on neurological disability
spinal cord motor neurons (SMI-32+ cell count) (SOD1G93A mice; day 40 of treatment): rescued spinal cordmotor neurons
